TGI data for 15 compounds are collected here from PubChem BioAssay (NCI).

Structures are written as SMILES.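 Five concentrations, 48 hours, 96-well plates. TGI denotes the concentration required for complete inhibition of growth.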 A value given as a limit tells only on which side of the number the result lay.

Test systems include MOLT-4 leukemia; DU-145 prostate; CCRF-CEM leukemia; T-47D breast; NCI/ADR-RES ovarian; OVCAR-3 ovarian; MALME-3M melanoma; HT29 colon; 786-0 renal; UO-31 renal; HCT-15 colon; NCI-H522 lung; SNB-75 CNS; HCT-116 colon; HL-60(TB) leukemia.
Test in all cases: inhibition of tumour cell growth, NCI panel, 48 h

As to `CCN(CC)CCNC(=O)c1cc2cc(NC(=O)c3cc4cc(NC(=O)c5cc6cc(N)ccc6[nH]5)ccc4[nH]3)ccc2[nH]1`, the TGI in the experiment on MOLT-4 leukemia, with DU-145 prostate, in the experiment with CCRF-CEM leukemia, in the experiment on T-47D breast, with NCI/ADR-RES ovarian and in the experiment with OVCAR-3 ovarian was greater than 100 µM each time. The TGI with MALME-3M melanoma, with HT29 colon, in the experiment with 786-0 renal, in the experiment on UO-31 renal, in the experiment on HCT-15 colon and with NCI-H522 lung was greater than 100 µM in each case. Besides, the TGI in the experiment on SNB-75 CNS was greater than 100 µM.
In the case of `c1ccc(CNCCCCNCCCNCc2ccccc2)cc1`, the TGI is 33.2 µM in the experiment on MOLT-4 leukemia; 49.3 µM with DU-145 prostate; 32.4 µM with CCRF-CEM leukemia; greater than 100 µM with T-47D breast; greater than 100 µM in the experiment with NCI/ADR-RES ovarian; 54.7 µM in the experiment with OVCAR-3 ovarian. Moreover, the TGI worked out at 30.2 µM in the experiment on MALME-3M melanoma; 32.2 µM in the experiment on HCT-116 colon; 31 µM in the experiment on HT29 colon; 31.4 µM in the experiment with 786-0 renal; 52.4 µM with UO-31 renal; 39.4 µM with HCT-15 colon. The TGI in the experiment with NCI-H522 lung turned out to be 31 µM; with SNB-75 CNS it was 49.4 µM.
In the case of `COC(CC1(/C=C/O[Si](C(C)C)(C(C)C)C(C)C)C(=O)N(C)c2ccccc21)OC` (stereo not given), the TGI was greater than 100 µM in the experiment with MOLT-4 leukemia; greater than 100 µM in the experiment on DU-145 prostate; greater than 100 µM in the experiment with CCRF-CEM leukemia; greater than 100 µM in the experiment with T-47D breast; 78.4 µM with NCI/ADR-RES ovarian; greater than 100 µM in the experiment on OVCAR-3 ovarian. Besides, the TGI in the experiment on HCT-116 colon is greater than 100 µM; in the experiment on 786-0 renal, 71.6 µM; in the experiment with UO-31 renal, greater than 100 µM; in the experiment with HL-60(TB) leukemia, greater than 100 µM; in the experiment on HCT-15 colon it was greater than 100 µM; in the experiment with SNB-75 CNS it was greater than 100 µM.
As to `O=c1oc2ccccc2c(O)c1/C=N/C(=S)NCCc1ccccc1`, the TGI was greater than 100 µM with MOLT-4 leukemia; greater than 100 µM in the experiment with DU-145 prostate; 86.1 µM in the experiment with CCRF-CEM leukemia; greater than 100 µM in the experiment on T-47D breast; greater than 100 µM with NCI/ADR-RES ovarian; greater than 100 µM in the experiment with OVCAR-3 ovarian. Moreover, the TGI was greater than 100 µM with HCT-116 colon; greater than 100 µM in the experiment on HT29 colon; greater than 100 µM in the experiment with 786-0 renal; greater than 74.6 µM with UO-31 renal; 5.38 µM with HL-60(TB) leukemia; greater than 100 µM in the experiment with HCT-15 colon. Moreover, the TGI in the experiment on NCI-H522 lung is 87.4 µM; with SNB-75 CNS, greater than 87.5 µM.
With `CCOC(=O)[C@@]12C3C=CC(CC3)[C@]1(C(=O)c1ccccc1)C(=O)C(=O)N2c1ccccc1` (stereo not given in full), the TGI with MOLT-4 leukemia, with DU-145 prostate, in the experiment with T-47D breast, in the experiment on NCI/ADR-RES ovarian, in the experiment on OVCAR-3 ovarian and in the experiment on MALME-3M melanoma was greater than 100 µM throughout. The TGI with HCT-116 colon, with HT29 colon, in the experiment on 786-0 renal, with UO-31 renal, in the experiment with HCT-15 colon and in the experiment with NCI-H522 lung was greater than 100 µM in each case.
In the case of `O=C1NC(=O)C2(CCCCCC2)N1`, the TGI in the experiment with MOLT-4 leukemia, in the experiment with DU-145 prostate, with CCRF-CEM leukemia, in the experiment with T-47D breast, in the experiment on NCI/ADR-RES ovarian and with OVCAR-3 ovarian was greater than 100 µM in each case. For the same compound, the TGI with MALME-3M melanoma, in the experiment with HCT-116 colon, in the experiment with HT29 colon, in the experiment on 786-0 renal, in the experiment with UO-31 renal and in the experiment on HCT-15 colon was greater than 100 µM throughout. Moreover, the TGI in the experiment with NCI-H522 lung and in the experiment on SNB-75 CNS was greater than 100 µM each time.
Regarding `CC(NC(=O)C(N)CC(=O)O)NC(=O)C1CCC1` (stereo not given), the TGI in the experiment with MOLT-4 leukemia, in the experiment on DU-145 prostate, with CCRF-CEM leukemia, in the experiment on T-47D breast, in the experiment on NCI/ADR-RES ovarian and with OVCAR-3 ovarian was greater than 100 µM each time. Besides, the TGI with MALME-3M melanoma, in the experiment on HCT-116 colon, in the experiment on HT29 colon, in the experiment with 786-0 renal, with UO-31 renal and in the experiment with HCT-15 colon was greater than 100 µM each time. In addition, the TGI in the experiment on NCI-H522 lung and in the experiment with SNB-75 CNS was greater than 100 µM throughout.
For `C=C(C)[C@H]1C=C[C@@H](OC(=O)c2cccnc2)[C@@]23CO[C@@](C)([C@H](OC(=O)c4cccnc4)[C@@]4(OC(C)=O)C[C@H](C)[C@H](OCCC)[C@@H]4[C@H]2OC(C)=O)[C@H]13`, the TGI in the experiment with MOLT-4 leukemia, with DU-145 prostate, in the experiment on CCRF-CEM leukemia, in the experiment on T-47D breast, with NCI/ADR-RES ovarian and in the experiment with OVCAR-3 ovarian was greater than 15 µM each time. For the same compound, the TGI with HCT-116 colon was greater than 15 µM; in the experiment on 786-0 renal it was greater than 15 µM; in the experiment on UO-31 renal it was greater than 15 µM; with HL-60(TB) leukemia, 14.1 µM; in the experiment with HCT-15 colon it was greater than 15 µM; in the experiment on NCI-H522 lung, greater than 15 µM. In the experiment on SNB-75 CNS, this compound showed a TGI greater than 15 µM.
For `CCOC(=O)[C@@]12C[C@](/C=C/OC)(O[Si](C)(C)C)[C@@]13c1cc(OC)c(OC)cc1CCN3C(=O)C2O` (stereo not given in full), the TGI with MOLT-4 leukemia, with DU-145 prostate, with CCRF-CEM leukemia, with T-47D breast, with NCI/ADR-RES ovarian and in the experiment with OVCAR-3 ovarian was greater than 100 µM in each case. The TGI in the experiment with MALME-3M melanoma, in the experiment on HCT-116 colon, in the experiment on HT29 colon, in the experiment on 786-0 renal, in the experiment on UO-31 renal and with HCT-15 colon was greater than 100 µM in each case. For the same compound, in the experiment on SNB-75 CNS, the TGI was greater than 100 µM.
As to `N#C/C(C(=O)Nc1ccc(Cl)cc1)=C(/N)N1CCCCC1`, the TGI with MOLT-4 leukemia, in the experiment on DU-145 prostate, in the experiment on CCRF-CEM leukemia, with T-47D breast, in the experiment with NCI/ADR-RES ovarian and in the experiment on OVCAR-3 ovarian was greater than 100 µM each time. Moreover, the TGI with HCT-116 colon is greater than 100 µM; in the experiment with 786-0 renal, greater than 100 µM; in the experiment on UO-31 renal, greater than 100 µM; in the experiment with HL-60(TB) leukemia it was greater than 100 µM; in the experiment on HCT-15 colon, greater than 100 µM; with SNB-75 CNS, 72.3 µM.
For `CN(C)CCN=C1Nc2ccccc2C(=S)N2CSCC12` (stereo not given), the TGI in the experiment with MOLT-4 leukemia, with DU-145 prostate, in the experiment on CCRF-CEM leukemia, with T-47D breast, with NCI/ADR-RES ovarian and in the experiment with OVCAR-3 ovarian was greater than 100 µM in each case. The TGI in the experiment with MALME-3M melanoma, in the experiment with HCT-116 colon, in the experiment on HT29 colon, in the experiment with 786-0 renal, in the experiment on UO-31 renal and in the experiment with HCT-15 colon was greater than 100 µM in each case. In addition, the TGI in the experiment on NCI-H522 lung and in the experiment on SNB-75 CNS was greater than 100 µM in each case.
For the compound `NC(=S)N/N=C1\NC(=O)/C(=C/c2ccc3c(c2)OCO3)S1`, the TGI with MOLT-4 leukemia was found to be 67.3 µM; in the experiment with DU-145 prostate, 88 µM; with T-47D breast, 71.2 µM; in the experiment with NCI/ADR-RES ovarian it was 78.7 µM; with OVCAR-3 ovarian, 45.7 µM; in the experiment with HCT-116 colon, 85 µM. Moreover, the TGI was 82.9 µM with HT29 colon; greater than 100 µM in the experiment on 786-0 renal; greater than 100 µM in the experiment on UO-31 renal; 63.3 µM in the experiment with HL-60(TB) leukemia; 82.6 µM in the experiment with HCT-15 colon; 52.6 µM in the experiment with SNB-75 CNS.
Consider `Cc1ccc(S(=O)(=O)N2CCSCCN(S(=O)(=O)c3ccc(C)cc3)CCN(S(=O)(=O)c3ccc(C)cc3)CC2)cc1`, for which the TGI in the experiment on MOLT-4 leukemia, in the experiment on DU-145 prostate, with CCRF-CEM leukemia, in the experiment with T-47D breast, in the experiment with NCI/ADR-RES ovarian and in the experiment with OVCAR-3 ovarian was greater than 100 µM in each case. Also, the TGI with HCT-116 colon was greater than 100 µM; in the experiment with HT29 colon, greater than 100 µM; in the experiment on 786-0 renal it was 73.9 µM; with UO-31 renal, greater than 100 µM; in the experiment on HL-60(TB) leukemia, greater than 100 µM.
In the case of `CC1=C/C(=N\O)C(C(O)(C(F)(F)F)C(F)(F)F)C(C)(C)C1` (stereo not given), the TGI in the experiment with MOLT-4 leukemia, in the experiment on DU-145 prostate, in the experiment on CCRF-CEM leukemia, in the experiment on T-47D breast, with NCI/ADR-RES ovarian and in the experiment on OVCAR-3 ovarian was greater than 10 µM each time. For the same compound, the TGI in the experiment with MALME-3M melanoma, in the experiment with HCT-116 colon, in the experiment with HT29 colon, in the experiment on 786-0 renal, in the experiment with UO-31 renal and with HCT-15 colon was greater than 10 µM each time. For the same compound, the TGI in the experiment on NCI-H522 lung and in the experiment with SNB-75 CNS was greater than 10 µM in each case.
With `O=C(c1ccccc1)c1ccc(-n2c3ccccc3c3ccc4c(c32)C(=O)C=CC4=O)cc1`, the TGI in the experiment on MOLT-4 leukemia is greater than 35.4 µM; with DU-145 prostate, greater than 40.1 µM; in the experiment on T-47D breast, greater than 22.6 µM; in the experiment with NCI/ADR-RES ovarian, 60.5 µM; with OVCAR-3 ovarian, 20.8 µM; in the experiment on HCT-116 colon it was 16.3 µM. The TGI with HT29 colon was 8.35 µM; in the experiment on 786-0 renal it was 5.77 µM; in the experiment on UO-31 renal, 7.78 µM; in the experiment with HL-60(TB) leukemia it was 18.2 µM; with HCT-15 colon, 31.3 µM; in the experiment with NCI-H522 lung it was 8.9 µM. The compound also displayed a TGI with SNB-75 CNS greater than 58.4 µM.
